Relative viability data for eleven cell lines are collected here from the supplement of paper PMC10307832.

What all share (experiment): relative viability (nuclei count vs DMSO), 5 days (fraction); higher = more cells survive
Compound in assay [1]: COc1cc([C@@H]2c3cc4c(cc3[C@@H](O[C@@H]3O[C@@H]5CO[C@@H](C)O[C@H]5[C@H](O)[C@H]3O)[C@H]3COC(=O)[C@H]23)OCO4)cc(OC)c1O [Etoposide] + O=C(c1cc(Cc2n[nH]c(=O)c3ccccc23)ccc1F)N1CCN(C(=O)C2CC2)CC1 [Olaparib] (partner 8 µM)
The method, boiled down: (§1)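 Values are medians from duplicate plates. Each reflects relative viability, defined as the nuclei count of treated wells over that of vehicle wells. Lung cancer cell lines in 1536-well plates were pin-tool dosed one day after seeding with one drug alone or with a fixed anchor-drug dose plus five library-drug doses (not always all listed) in √10 steps, then fixed, stained and imaged at 4× after 5 days.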

Compound in assay [2]: CC1=C(N=C(N=C1N)[C@H](CC(=O)N)NC[C@@H](C(=O)N)N)C(=O)N[C@@H]([C@H](C2=CN=CN2)OC3C(C(C(C(O3)CO)O)O)OC4C(C(C(C(O4)CO)O)OC(=O)N)O)C(=O)N[C@H](C)[C@H]([C@H](C)C(=O)N[C@@H]([C@@H](C)O)C(=O)NCCC5=NC(=CS5)C6=NC(=CS6)C(=O)NCCC[S+](C)C)O [Bleomycin] + CS(=O)(=O)N1CCN(Cc2cc3nc(-c4cccc5[nH]ncc45)nc(N4CCOCC4)c3s2)CC1 [Pictilisib] (partner 1 µM)
To be noted: main component drawn. The method in brief:
as §1

Compound in assay [3]: CC1=C(N=C(N=C1N)[C@H](CC(=O)N)NC[C@@H](C(=O)N)N)C(=O)N[C@@H]([C@H](C2=CN=CN2)OC3C(C(C(C(O3)CO)O)O)OC4C(C(C(C(O4)CO)O)OC(=O)N)O)C(=O)N[C@H](C)[C@H]([C@H](C)C(=O)N[C@@H]([C@@H](C)O)C(=O)NCCC5=NC(=CS5)C6=NC(=CS6)C(=O)NCCC[S+](C)C)O [Bleomycin] + COc1cc2c(Oc3ccc(NC(=O)C4(C(=O)Nc5ccc(F)cc5)CC4)cc3F)ccnc2cc1OCCCN1CCOCC1 [Foretinib] (partner 0.25 µM)
The settings on record: main component drawn. The method, boiled down:
as §1

Compound in assay [4]: COc1cc([C@@H]2c3cc4c(cc3[C@@H](O[C@@H]3O[C@@H]5CO[C@@H](C)O[C@H]5[C@H](O)[C@H]3O)[C@H]3COC(=O)[C@H]23)OCO4)cc(OC)c1O [Etoposide] + Cc1cc(Nc2cc(N3CCN(C)CC3)nc(Sc3ccc(NC(=O)C4CC4)cc3)n2)n[nH]1 [Tozasertib] (partner 0.1 µM)
The method in brief:
as §1

As to Calu-6, the relative viability is 0.585 in assay [1] (first compound 0.01 µM); 0.547 in assay [1] (first compound 0.03162 µM); 0.505 in assay [1] (first compound 0.1 µM); 0.274 in assay [1] (first compound 0.3162 µM); 0.202 in assay [1] (first compound 1 µM); 0.575 in assay [2] (first compound 0.01 µM). Also, the relative viability was determined as 0.537 in assay [2] (first compound 0.03162 µM); 0.385 in assay [2] (first compound 0.1 µM); 0.179 in assay [2] (first compound 0.3162 µM); 0.177 in assay [2] (first compound 1 µM); 0.646 in assay [3] (first compound 0.01 µM); 0.549 in assay [3] (first compound 0.03162 µM). The relative viability in assay [3] (first compound 0.1 µM) is 0.29; in assay [3] (first compound 0.3162 µM) it was 0.132; in assay [3] (first compound 1 µM) it was 0.107.
In the case of HCC-44, the relative viability in assay [1] (first compound 0.01 µM) worked out at 1.02; in assay [1] (first compound 0.03162 µM), 1.04; in assay [1] (first compound 0.1 µM) it was 1.04; in assay [1] (first compound 0.3162 µM) it was 0.918; in assay [1] (first compound 1 µM), 0.543; in assay [2] (first compound 0.01 µM), 0.385. Further, the relative viability in assay [2] (first compound 0.03162 µM) was 0.477; in assay [2] (first compound 0.1 µM) it was 0.271; in assay [2] (first compound 0.3162 µM) it was 0.211; in assay [2] (first compound 1 µM), 0.246; in assay [4] (first compound 0.01 µM), 0.759; in assay [4] (first compound 0.03162 µM) it was 0.886. Besides, the relative viability in assay [4] (first compound 0.1 µM) turned out to be 1.11; in assay [4] (first compound 0.3162 µM), 0.57; in assay [4] (first compound 1 µM), 0.317.
Regarding NCI-H1299, the relative viability in assay [1] (first compound 0.01 µM) turned out to be 0.954; in assay [1] (first compound 0.03162 µM), 0.964; in assay [1] (first compound 0.1 µM) it was 0.936; in assay [1] (first compound 0.3162 µM) it was 0.833; in assay [1] (first compound 1 µM), 0.65; in assay [2] (first compound 0.01 µM), 0.65. For the same cell line, the relative viability in assay [2] (first compound 0.03162 µM) came to 0.571; in assay [2] (first compound 0.1 µM) it was 0.367; in assay [2] (first compound 0.3162 µM), 0.149; in assay [2] (first compound 1 µM), 0.154; in assay [3] (first compound 0.01 µM), 1.07; in assay [3] (first compound 0.03162 µM) it was 1.08. Moreover, the relative viability in assay [3] (first compound 0.1 µM) turned out to be 0.934; in assay [3] (first compound 0.3162 µM) it was 0.497; in assay [3] (first compound 1 µM), 0.277.
In the case of NCI-H1648, the relative viability was determined as 0.885 in assay [1] (first compound 0.03162 µM); 0.758 in assay [1] (first compound 0.1 µM); 0.757 in assay [1] (first compound 0.3162 µM); 0.358 in assay [1] (first compound 1 µM); 0.359 in assay [4] (first compound 0.03162 µM); 0.416 in assay [4] (first compound 0.1 µM). Moreover, the relative viability in assay [4] (first compound 0.3162 µM) was 0.282; in assay [4] (first compound 1 µM), 0.28.
On to NCI-H1563, for which the relative viability in assay [2] (first compound 0.01 µM) came out at 0.608; in assay [2] (first compound 0.03162 µM), 0.698; in assay [2] (first compound 0.1 µM) it was 0.623; in assay [2] (first compound 0.3162 µM), 0.574; in assay [2] (first compound 1 µM) it was 0.533; in assay [3] (first compound 0.01 µM) it was 0.838. Moreover, the relative viability in assay [3] (first compound 0.03162 µM) stood at 0.803; in assay [3] (first compound 0.1 µM), 0.734; in assay [3] (first compound 0.3162 µM), 0.647; in assay [3] (first compound 1 µM) it was 0.61.
Turning to A549, the relative viability came out at 0.32 in assay [1] (first compound 0.01 µM); 0.209 in assay [1] (first compound 0.03162 µM); 0.103 in assay [1] (first compound 0.1 µM); 0.0476 in assay [1] (first compound 0.3162 µM); 0.037 in assay [1] (first compound 1 µM); 0.4 in assay [2] (first compound 0.01 µM). Moreover, the relative viability was 0.389 in assay [2] (first compound 0.03162 µM); 0.323 in assay [2] (first compound 0.1 µM); 0.0899 in assay [2] (first compound 0.3162 µM); 0.0479 in assay [2] (first compound 1 µM); 0.812 in assay [3] (first compound 0.01 µM); 0.917 in assay [3] (first compound 0.03162 µM). Further, the relative viability in assay [3] (first compound 0.1 µM) stood at 0.635; in assay [3] (first compound 0.3162 µM), 0.182; in assay [3] (first compound 1 µM), 0.0665.
For NCI-H522, the relative viability in assay [1] (first compound 0.01 µM) was found to be 0.593; in assay [1] (first compound 0.03162 µM) it was 0.724; in assay [1] (first compound 0.1 µM), 0.811; in assay [1] (first compound 0.3162 µM), 0.59; in assay [1] (first compound 1 µM) it was 0.539; in assay [4] (first compound 0.01 µM) it was 0.589. Also, the relative viability is 0.554 in assay [4] (first compound 0.03162 µM), 0.539 in assay [4] (first compound 0.1 µM), 0.59 in assay [4] (first compound 0.3162 µM) and 0.516 in assay [4] (first compound 1 µM).
Regarding NCI-H1623, the relative viability in assay [3] (first compound 0.01 µM) amounted to 0.758; in assay [3] (first compound 0.03162 µM), 0.942; in assay [3] (first compound 0.1 µM), 0.774; in assay [3] (first compound 0.3162 µM), 0.646; in assay [3] (first compound 1 µM), 0.418; in assay [4] (first compound 0.01 µM) it was 0.416. For the same cell line, the relative viability was 0.392 in assay [4] (first compound 0.03162 µM), 0.349 in assay [4] (first compound 0.1 µM), 0.396 in assay [4] (first compound 0.3162 µM) and 0.259 in assay [4] (first compound 1 µM).
Take SW 900: the relative viability in assay [1] (first compound 0.01 µM) is 0.913; in assay [1] (first compound 0.03162 µM), 0.924; in assay [1] (first compound 0.1 µM), 0.968; in assay [1] (first compound 0.3162 µM), 0.359; in assay [1] (first compound 1 µM) it was 0.224; in assay [3] (first compound 0.01 µM) it was 0.629. Further, the relative viability in assay [3] (first compound 0.03162 µM) came out at 0.386; in assay [3] (first compound 0.1 µM) it was 0.465; in assay [3] (first compound 0.3162 µM), 0.211; in assay [3] (first compound 1 µM), 0.161; in assay [4] (first compound 0.01 µM) it was 0.459; in assay [4] (first compound 0.03162 µM), 0.666. The relative viability in assay [4] (first compound 0.1 µM) worked out at 0.55; in assay [4] (first compound 0.3162 µM), 0.341; in assay [4] (first compound 1 µM), 0.224.
With IA-LM, the relative viability in assay [1] (first compound 0.01 µM) is 0.674; in assay [1] (first compound 0.03162 µM), 0.822; in assay [1] (first compound 0.1 µM), 0.771; in assay [1] (first compound 0.3162 µM), 0.681; in assay [1] (first compound 1 µM), 0.441; in assay [2] (first compound 0.01 µM), 0.331. In addition, the relative viability in assay [2] (first compound 0.03162 µM) is 0.29; in assay [2] (first compound 0.1 µM), 0.356; in assay [2] (first compound 0.3162 µM), 0.211; in assay [2] (first compound 1 µM), 0.215; in assay [3] (first compound 0.01 µM), 1.09; in assay [3] (first compound 0.03162 µM), 0.96. In addition, the relative viability in assay [3] (first compound 0.1 µM) was 0.899; in assay [3] (first compound 0.3162 µM) it was 0.56; in assay [3] (first compound 1 µM) it was 0.241.
As for EBC-1, the relative viability was 0.641 in assay [1] (first compound 0.01 µM); 0.689 in assay [1] (first compound 0.03162 µM); 0.532 in assay [1] (first compound 0.1 µM); 0.405 in assay [1] (first compound 0.3162 µM); 0.266 in assay [1] (first compound 1 µM); 0.359 in assay [2] (first compound 0.01 µM). Further, the relative viability was 0.376 in assay [2] (first compound 0.03162 µM); 0.346 in assay [2] (first compound 0.1 µM); 0.272 in assay [2] (first compound 0.3162 µM); 0.283 in assay [2] (first compound 1 µM); 0.104 in assay [3] (first compound 0.01 µM); 0.106 in assay [3] (first compound 0.03162 µM). Besides, the relative viability in assay [3] (first compound 0.1 µM) amounted to 0.107; in assay [3] (first compound 0.3162 µM), 0.106; in assay [3] (first compound 1 µM) it was 0.105.
